The results in this text go back to US4522944A, “Carboxamido-derivatives of 5H-1,3,4-thiadiazolo[3,2-a]pyrimidines, compositions and use” (priority 1982, dated 1985).

Data set [1] is described as follows: approximate acute toxicity (LD50). The note with it: in vivo, po; mouse, per os, single administration of increasing doses, measured on the seventh day after treatment. As for the experimental part:
In view of their high therapeutic index, the compounds of the invention can be used safely in medicine. For example, the approximate acute toxicity (LD50) of the compounds 2-(3-pyridyl)-5-oxo-5H-1,3,4-thiadiazolo[3,2-a]pyrimidine-6-N-(2-pyridyl)-carboxamide and 5-oxo-5H-1,3,4-thiadiazolo[3,2-a]pyrimidine-6-N-(2-pyridyl)-carboxamide in the mouse, determined by single administration of increasing doses and measured on the seventh day after treatment, is higher than 800 mg/kg per os. Analogous toxicity data have been found for other compounds of the invention.

For data set [2], the system named is Reversed Passive Arthus Reaction (RPAR) in rat paw. The data set is described as follows: Reversed Passive Arthus Reaction (RPAR) in rat paw. It is filed as in vivo. The note with it: oral administration, approximate ED50, read-out: Anti-inflammatory activity, RPAR reaction, ED50. The source says: (§1) The hydroxy protecting groups, for instance, may be removed by mild reaction conditions, e.g. acid hydrolysis.
(B) the Reversed Passive Arthus Reaction (RPAR) in rat paw, induced by the interaction of antigen and antibody resulting in the formation of precipitating immune complex, followed by fixation of complement and accumulation of polymorphonuclear leucocytes at a focal point (D. K. Gemmell, J. Cottney and A. J. Lewis, Agents and Actions 9/1 pag. 107, 1979).
(§2) The following Tables I and II show, for example, the approximate ED50 values of the anti-inflammatory activity in the above mentioned tests, in the rat after oral administration, for a compound of this invention: 2-(3-pyridyl)-5-oxo-5H-1,3,4-thiadiazolo[3,2-a]pyrimidine-6-N-(2-pyridyl)-carboxamide (internal code FCE 22914): […]

Data set [3] has as its system mice. Nature of the data set: phenylquinone test in mice (analgesic activity). In kind it is in vivo. The note with it: 50 mg/kg, oral administration. Here is the method: The analgesic activity was assessed, for example, by means of the phenylquinone test in mice according to Siegmund: [Siegmund et al. Proc. Soc. Exper. Biol. Med. 95, 729 (1957)]. In this test the compound FCE 22914, for example, gives a 30% inhibition at 50 mg/kg after oral administration. It is known that certain thiadiazolo-pyrimidine derivatives are endowed with anti-allergic and anti-asthma activity, e.g. those described in Published Japan Patent Application No. J57 142989, but such compounds are devoid of any anti-inflammatory and/or analgesic activity.

Data set [4] concerns edema formation in the hind paw. Nature of the data set: Carrageenin induced oedema (edema formation in the hind paw of rats). The following applies: rat, oral administration; approximate ED50; read-out: Anti-inflammatory activity, Carrageenin induced oedema, ED50. In kind it is in vivo.
Description: as §1
(A) the edema formation in the hind paw of rats in response to a subplantar injection of carrageenin, according to the method of C. A. Winter et al. (J. Pharmac. Exp. Therap. 1963, 141, 369) and P. Lence (Arch. Int. Pharmacodyn., 1962, 136, 237), and
as §2
(In the carrageenan paw model, swelling and tenderness develop within hours.)

Molecules are shown by their SMILES.

For orientation: LD50 means the dose expected to kill half of the subjects tested. Low readings indicate a more toxic substance, high ones a less toxic substance. In data set [1], `O=C(Nc1ccccn1)c1cnc2scnn2c1=O` [5-oxo-5H-1,3,4-thiadiazolo[3,2-a]pyrimidine-6-N-(2-pyridyl)-carboxamide] displayed a median lethal dose (LD50) at 168 h greater than 800 mg/kg.
The term ED50 denotes the dose at which the effect has come halfway, by size or by number of responders. In the case of `O=C(Nc1ccccn1)c1cnc2sc(-c3cccnc3)nn2c1=O` [FCE 22914, 2-(3-pyridyl)-5-oxo-5H-1,3,4-thiadiazolo[3,2-a]pyrimidine-6-N-(2-pyridyl)-carboxamide], the LD50 at 168 h in data set [1] is greater than 800 mg/kg. Further, the median effective dose (ED50) in data set [2] was 85.2 mg/kg; in data set [4] it was 45.9 mg/kg. The “inhibition in phenylquinone test (analgesic activity)” value in data set [3] was found to be 30%.
